From US11697648B2, “Fused pyrimidine pyridinone compounds as JAK inhibitors” (THERAVANCE BIOPHARMA R&D IP, LLC, priority 2019, dated 2023)

Experiments:
[1] = molecular target: JAK1 (Homo sapiens (Human), UniProt P23458); assay: Biochemical JAK1 kinase assay (LanthaScreen)
Description: (§1) Assay 1: Biochemical JAK and Tyk2 Kinase Assays
(§2) A panel of four LanthaScreen JAK biochemical assays (JAK1, 2, 3 and Tyk2) were carried in a common kinase reaction buffer (50 mM HEPES, pH 7.5, 0.01% Brij-35, 10 mM MgCl2, and 1 mM EGTA). Recombinant GST-tagged JAK enzymes and a GFP-tagged STAT1 peptide substrate were obtained from Life Technologies.
(§3) Serially or discretely diluted compounds were pre-incubated with each of the four JAK enzymes and the substrate in white 384-well microplates (Corning) at ambient temperature for 1 h. ATP was subsequently added to initiate the kinase reactions in 10 μL total volume, with 1% DMSO. […] Kinase reactions were allowed to proceed for 1 hour at ambient temperature before a 10 μL preparation of EDTA (10 mM final concentration) and Tb-anti-pSTAT1 (pTyr701) antibody (Life Technologies, 2 nM final concentration) in TR-FRET dilution buffer (Life Technologies) was added. The plates were allowed to incubate at ambient temperature for 1 h before being read on the EnVision reader (Perkin Elmer). Emission ratio signals (520 nm/495 nm) were recorded and utilized to calculate the percent inhibition values based on DMSO and background controls.
(§4) For dose-response analysis, percent inhibition data were plotted vs. compound concentrations, and IC50 values were determined from a 4-parameter robust fit model with the Prism software (GraphPad Software). Results were expressed as pIC50 (negative logarithm of IC50) and subsequently converted to pKi (negative logarithm of dissociation constant, Ki) using the Cheng-Prusoff equation.

[2] = molecular target: JAK2 (Homo sapiens (Human), UniProt O60674); assay: Biochemical JAK2 kinase assay (LanthaScreen)
Description: as §1, §2, §3, §4

[3] = molecular target: JAK3 (Homo sapiens (Human), UniProt P52333); assay: Biochemical JAK3 kinase assay (LanthaScreen)
Description: as §1, §2, §3, §4

[4] = molecular target: Tyk2 (Homo sapiens (Human), UniProt P29597); assay: Biochemical Tyk2 kinase assay (LanthaScreen)
Description: as §1, §2, §3, §4

[5] = tested on: IL-2 stimulated STAT5 phosphorylation in Tall-1 human T cell line (JAK3); assay: Cellular JAK3 potency assay: inhibition of IL-2 stimulated pSTAT5 in Tall-1 T cells; format: cell-based
Description: Assay 2: Cellular JAK3 Potency Assay: Inhibition of IL-2 Stimulated pSTAT5 in Tall-1 T Cells
The potency of test compounds for inhibition of interleukin-2 (IL-2) stimulated STAT5 phosphorylation was measured in the Tall-1 human T cell line (DSMZ) using AlphaLisa. Because IL-2 signals through JAK3, this assay provides a measure of JAK3 cellular potency.
Phosphorylated STAT5 was measured via the AlphaLISA SureFire Ultra pSTAT5 (Tyr694/699) kit (PerkinElmer).
Human T cells from the Tall-1 cell line were cultured in a 37° C., 5% CO2 humidified incubator in RPMI (Life Technologies) supplemented with 15% Heat Inactivated Fetal Bovine Serum (FBS, Life Technologies), 2 mM Glutamax (Life Technologies), 25 mM HEPES (Life Technologies) and 1× Pen/Strep (Life Technologies). Compounds were serially diluted in DMSO and dispensed acoustically to empty wells. Assay media (phenol red-free DMEM (Life Technologies) supplemented with 10% FBS (ATCC)) was dispensed (4 μL/well) and plates shaken at 900 rpm for 10 inns. Cells were seeded at 45,000 cells/well in assay media (4 μL/well), and incubated at 37° C., 5% CO2 for 1 hour, followed by the addition of IL-2 (R&D Systems; final concentration 300 ng/ml) in pre-warmed assay media (4 μL) for 30 minutes. After cytokine stimulation, cells were lysed with 6 ul of 3× AlphaLisa Lysis Buffer (PerkinElmer) containing 1× PhosStop and Complete tablets (Roche). The lysate was shaken at 900 rpm for 10 minutes at room temperature (RT). Phosphorylated STAT5 was measured via the pSTAT5 AlphaLisa kit (PerkinElmer). Freshly prepared acceptor bead mixture was dispensed onto lysate (5 μL) under green filtered <100 lux light. Plates were shaken at 900 rpm for 2 mins, briefly spun down, and incubated for 2 hrs at RT in the dark. Donor beads were dispensed (5 μL) under green filtered <100 lux light. Plates were shaken at 900 rpm for 2 minutes, briefly spun down, and incubated overnight at RT in the dark. Luminescence was measured with excitation at 689 nm and emission at 570 nm using an EnVision plate reader (PerkinElmer) under green filtered <100 lux light.
To determine the inhibitory potency of test compounds in response to IL-2, the average emission intensity of beads bound to pSTAT5 was measured in a human T cell line. IC50 values were determined from analysis of the inhibition curves of signal intensity versus compound concentration. Data are expressed as pIC50 (negative decadic logarithm IC50) values (mean standard deviation).

[6] = selectivity JAK3 over JAK1, difference of pKi
[7] = IL-2 stimulated pSTAT5, Tall-1 T cells
[8] = selectivity, difference of pKi values
[9] = IL-2 stimulated pSTAT5 in Tall-1 T cells

Chain of JAK2 (O60674 whole entry): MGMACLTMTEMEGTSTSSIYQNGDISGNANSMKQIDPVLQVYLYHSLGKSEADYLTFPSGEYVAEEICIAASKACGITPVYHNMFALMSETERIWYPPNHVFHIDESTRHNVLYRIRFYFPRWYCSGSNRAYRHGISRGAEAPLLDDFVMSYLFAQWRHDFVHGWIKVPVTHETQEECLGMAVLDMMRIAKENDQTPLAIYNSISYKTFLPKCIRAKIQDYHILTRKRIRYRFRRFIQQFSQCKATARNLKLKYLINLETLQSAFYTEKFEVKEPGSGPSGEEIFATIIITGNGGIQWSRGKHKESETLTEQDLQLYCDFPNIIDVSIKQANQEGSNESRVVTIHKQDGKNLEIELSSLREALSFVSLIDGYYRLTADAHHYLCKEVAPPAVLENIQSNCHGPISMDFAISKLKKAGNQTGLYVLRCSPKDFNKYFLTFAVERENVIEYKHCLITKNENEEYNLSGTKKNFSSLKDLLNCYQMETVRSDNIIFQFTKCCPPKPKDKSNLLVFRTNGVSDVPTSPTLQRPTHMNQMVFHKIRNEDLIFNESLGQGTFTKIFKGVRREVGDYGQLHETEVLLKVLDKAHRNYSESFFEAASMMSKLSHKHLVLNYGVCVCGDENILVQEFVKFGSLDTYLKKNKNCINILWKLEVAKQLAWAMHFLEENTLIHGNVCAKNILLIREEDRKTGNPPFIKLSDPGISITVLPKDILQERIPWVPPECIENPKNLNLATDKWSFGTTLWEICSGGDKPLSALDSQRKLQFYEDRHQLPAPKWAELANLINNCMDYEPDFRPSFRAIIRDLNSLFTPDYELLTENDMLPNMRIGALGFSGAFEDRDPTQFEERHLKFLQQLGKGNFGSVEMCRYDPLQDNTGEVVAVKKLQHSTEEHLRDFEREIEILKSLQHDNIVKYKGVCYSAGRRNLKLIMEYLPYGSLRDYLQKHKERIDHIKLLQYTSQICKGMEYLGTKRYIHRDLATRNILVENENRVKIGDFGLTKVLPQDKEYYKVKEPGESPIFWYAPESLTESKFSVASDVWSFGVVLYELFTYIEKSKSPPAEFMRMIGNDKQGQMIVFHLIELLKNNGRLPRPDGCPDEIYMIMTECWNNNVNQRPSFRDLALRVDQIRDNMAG
Chain of JAK1 (P23458 whole entry): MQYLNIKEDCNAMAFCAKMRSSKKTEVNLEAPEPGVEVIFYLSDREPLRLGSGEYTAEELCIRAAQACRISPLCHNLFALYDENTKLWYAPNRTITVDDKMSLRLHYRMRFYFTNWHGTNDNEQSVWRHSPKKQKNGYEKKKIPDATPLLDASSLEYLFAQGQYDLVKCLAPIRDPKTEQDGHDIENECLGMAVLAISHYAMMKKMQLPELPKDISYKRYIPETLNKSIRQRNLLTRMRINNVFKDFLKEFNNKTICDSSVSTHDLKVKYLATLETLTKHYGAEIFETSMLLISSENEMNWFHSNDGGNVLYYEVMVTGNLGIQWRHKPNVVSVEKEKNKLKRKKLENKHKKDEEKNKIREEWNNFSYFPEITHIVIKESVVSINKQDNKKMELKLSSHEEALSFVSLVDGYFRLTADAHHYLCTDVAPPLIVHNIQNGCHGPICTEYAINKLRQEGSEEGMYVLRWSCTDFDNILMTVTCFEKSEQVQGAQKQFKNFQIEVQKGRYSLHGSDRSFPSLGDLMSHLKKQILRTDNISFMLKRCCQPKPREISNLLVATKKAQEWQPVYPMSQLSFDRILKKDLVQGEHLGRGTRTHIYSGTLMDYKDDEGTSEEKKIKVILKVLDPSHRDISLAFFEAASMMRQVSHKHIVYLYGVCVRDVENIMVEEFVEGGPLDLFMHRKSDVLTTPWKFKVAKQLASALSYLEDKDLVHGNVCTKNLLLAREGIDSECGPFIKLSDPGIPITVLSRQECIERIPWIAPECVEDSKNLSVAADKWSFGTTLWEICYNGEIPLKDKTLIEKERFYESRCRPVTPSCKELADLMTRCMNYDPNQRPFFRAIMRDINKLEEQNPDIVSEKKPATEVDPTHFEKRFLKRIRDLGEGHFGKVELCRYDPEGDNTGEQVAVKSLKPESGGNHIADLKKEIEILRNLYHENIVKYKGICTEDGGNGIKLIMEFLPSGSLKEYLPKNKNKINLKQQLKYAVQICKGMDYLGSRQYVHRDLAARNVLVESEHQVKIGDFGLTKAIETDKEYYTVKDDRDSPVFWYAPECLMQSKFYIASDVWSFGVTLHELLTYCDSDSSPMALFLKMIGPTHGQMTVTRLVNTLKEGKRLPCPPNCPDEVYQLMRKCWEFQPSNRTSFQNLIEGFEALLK
Chain of Tyk2 (P29597 whole entry): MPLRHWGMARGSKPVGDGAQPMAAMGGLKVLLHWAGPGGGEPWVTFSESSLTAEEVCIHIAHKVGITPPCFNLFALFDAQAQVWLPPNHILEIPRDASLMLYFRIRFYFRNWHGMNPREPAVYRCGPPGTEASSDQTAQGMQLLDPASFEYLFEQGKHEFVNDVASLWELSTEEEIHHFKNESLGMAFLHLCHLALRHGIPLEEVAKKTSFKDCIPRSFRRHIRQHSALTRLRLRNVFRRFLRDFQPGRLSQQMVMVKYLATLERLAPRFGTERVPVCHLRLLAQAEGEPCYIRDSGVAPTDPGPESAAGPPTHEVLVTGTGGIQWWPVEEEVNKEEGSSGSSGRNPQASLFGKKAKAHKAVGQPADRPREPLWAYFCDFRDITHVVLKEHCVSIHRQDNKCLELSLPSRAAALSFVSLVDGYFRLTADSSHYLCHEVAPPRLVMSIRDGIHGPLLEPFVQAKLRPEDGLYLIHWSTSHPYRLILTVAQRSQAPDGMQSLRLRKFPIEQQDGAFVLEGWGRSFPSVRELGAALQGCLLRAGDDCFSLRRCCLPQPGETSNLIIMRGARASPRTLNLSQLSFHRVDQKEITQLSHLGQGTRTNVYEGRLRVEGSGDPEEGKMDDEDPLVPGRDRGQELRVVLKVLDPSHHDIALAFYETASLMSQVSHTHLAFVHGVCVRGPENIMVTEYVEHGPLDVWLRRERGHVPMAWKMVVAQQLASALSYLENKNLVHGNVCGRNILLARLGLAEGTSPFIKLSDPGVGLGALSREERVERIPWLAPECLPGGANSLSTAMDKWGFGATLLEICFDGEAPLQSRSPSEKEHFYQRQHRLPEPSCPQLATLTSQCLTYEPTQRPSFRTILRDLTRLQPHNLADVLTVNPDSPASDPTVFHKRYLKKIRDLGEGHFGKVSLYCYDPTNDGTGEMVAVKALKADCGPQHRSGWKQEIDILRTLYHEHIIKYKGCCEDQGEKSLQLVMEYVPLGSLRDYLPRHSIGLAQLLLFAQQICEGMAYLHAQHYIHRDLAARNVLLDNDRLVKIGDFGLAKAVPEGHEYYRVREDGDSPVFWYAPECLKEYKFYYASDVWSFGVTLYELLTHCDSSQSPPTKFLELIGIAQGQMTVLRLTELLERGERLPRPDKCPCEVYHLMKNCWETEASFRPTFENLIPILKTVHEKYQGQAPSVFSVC
Chain of JAK3 (P52333 whole entry): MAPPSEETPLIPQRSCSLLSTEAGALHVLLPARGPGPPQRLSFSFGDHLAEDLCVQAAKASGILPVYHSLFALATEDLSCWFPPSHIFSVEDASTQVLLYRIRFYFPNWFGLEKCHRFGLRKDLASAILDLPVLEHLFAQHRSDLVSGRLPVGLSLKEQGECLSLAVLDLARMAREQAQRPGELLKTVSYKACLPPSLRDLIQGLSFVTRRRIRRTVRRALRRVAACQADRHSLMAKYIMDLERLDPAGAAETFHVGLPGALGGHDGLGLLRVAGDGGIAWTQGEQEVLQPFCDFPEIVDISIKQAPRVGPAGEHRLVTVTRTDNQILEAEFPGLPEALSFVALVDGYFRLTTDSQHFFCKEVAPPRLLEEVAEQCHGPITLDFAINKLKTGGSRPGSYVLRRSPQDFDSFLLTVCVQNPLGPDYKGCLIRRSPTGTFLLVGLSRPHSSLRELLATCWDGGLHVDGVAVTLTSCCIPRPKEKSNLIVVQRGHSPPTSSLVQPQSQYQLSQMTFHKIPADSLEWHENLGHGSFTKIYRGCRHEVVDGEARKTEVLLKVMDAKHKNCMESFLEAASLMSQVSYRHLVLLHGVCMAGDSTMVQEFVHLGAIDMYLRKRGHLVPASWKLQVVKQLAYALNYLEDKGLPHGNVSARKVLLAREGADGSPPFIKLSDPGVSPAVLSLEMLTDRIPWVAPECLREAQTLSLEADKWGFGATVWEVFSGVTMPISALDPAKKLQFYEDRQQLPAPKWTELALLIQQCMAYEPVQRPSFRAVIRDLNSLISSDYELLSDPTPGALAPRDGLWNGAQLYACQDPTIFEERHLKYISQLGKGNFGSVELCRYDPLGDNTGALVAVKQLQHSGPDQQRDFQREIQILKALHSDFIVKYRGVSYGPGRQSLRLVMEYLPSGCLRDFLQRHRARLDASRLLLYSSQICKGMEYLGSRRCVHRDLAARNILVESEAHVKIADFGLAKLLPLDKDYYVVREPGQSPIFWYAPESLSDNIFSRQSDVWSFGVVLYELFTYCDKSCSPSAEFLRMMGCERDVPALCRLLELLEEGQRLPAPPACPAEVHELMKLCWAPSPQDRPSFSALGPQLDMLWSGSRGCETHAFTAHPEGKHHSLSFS

SMILES | JAK 1 (pKi) [1] | JAK 2 (pKi) [2] | JAK 3 (pKi) [3] | JAK3 (pKi)-JAK1 (pKi) [3, 6] | Tyk 2 (pKi) [4] | Tall-1 (pIC50) [5, 7] | JAK3 (pKi)-JAK1 (pKi) [3, 8] | Tall-1 (pIC50) [5, 9]
C=CC(=O)N1CC(CCn2c(=O)ccc3cnc(Nc4ccc(N5CCN(C)CC5)c(C#N)c4)nc32)C1 [Example 9, 5-((8-(2-(1-acryloylazetidin-3-yl)ethyl)-7-oxo-7,8-dihydropyrido[2,3-d]pyrimidin-2-yl)amino)-2-(4-methylpiperazin-1-yl)benzonitrile] | E (E represents a pKi value of 7 or below (Ki of 100 nM or above)) | E (E represents a pKi value of 7 or below (Ki of 100 nM or above)) | B (B represents pKi value between 9 and 10 (Ki between 1 nM and 0.1 nM)) | A (A represents a value of 3 or above) | E (E represents a pKi value of 7 or below (Ki of 100 nM or above)) | B (B represents a pC50 value between 6.7 (included) and 7.5 (IC50 between 200 nM and 32 nM)) | – | –
CN(C)C/C=C/C(=O)N1CC(CCn2c(=O)ccc3cnc(Nc4ccc(N5CCN(C)CC5)cn4)cc32)C1 [Example 11, (E)-1-(2-(1-(4-(dimethylamino)but-2-enoyl)azetidin-3-yl)ethyl)-7-((5-(4-methylpiperazin-1-yl)pyridin-2-yl)amino)-1,6-naphthyridin-2(1H)-one] | E (E represents a pKi value of 7 or below (Ki of 100 nM or above)) | E (E represents a pKi value of 7 or below (Ki of 100 nM or above)) | B (B represents pKi value between 9 and 10 (Ki between 1 nM and 0.1 nM)) | A (A represents a value of 3 or above) | E (E represents a pKi value of 7 or below (Ki of 100 nM or above)) | B (B represents a pC50 value between 6.7 (included) and 7.5 (IC50 between 200 nM and 32 nM)) | – | –
C=CC(=O)N1CC(CCn2c(=O)ccc3cnc(Nc4ccc(N5CCN(C)CC5)c(Cl)c4)nc32)C1 [Example 17] | E (E represents a pKi value of 7 or below (Ki of 100 nM or above)) | E (E represents a pKi value of 7 or below (Ki of 100 nM or above)) | B (B represents pKi value between 9 and 10 (Ki between 1 nM and 0.1 nM)) | A (A represents a value of 3 or above) | E (E represents a pKi value of 7 or below (Ki of 100 nM or above)) | B (B represents a pC50 value between 6.7 (included) and 7.5 (IC50 between 200 nM and 32 nM)) | – | –
C=CC(=O)N1CC(CCn2c(=O)ccc3cnc(Nc4ccc(N5CCOCC5)c(F)c4)nc32)C1 [Example 23] | E (E represents a pKi value of 7 or below (Ki of 100 nM or above)) | E (E represents a pKi value of 7 or below (Ki of 100 nM or above)) | B (B represents pKi value between 9 and 10 (Ki between 1 nM and 0.1 nM)) | A (A represents a value of 3 or above) | E (E represents a pKi value of 7 or below (Ki of 100 nM or above)) | B (B represents a pC50 value between 6.7 (included) and 7.5 (IC50 between 200 nM and 32 nM)) | – | –
C=CC(=O)N1CCN(CCn2c(=O)ccc3cnc(Nc4cnn(C)c4)nc32)C(C)(C)C1 [Example 33] | E (E represents a pKi value of 7 or below (Ki of 100 nM or above)) | E (E represents a pKi value of 7 or below (Ki of 100 nM or above)) | A (A represents a pKi value≥10 (Ki≤0.1 nM)) | A (A represents a value of 3 or above) | E (E represents a pKi value of 7 or below (Ki of 100 nM or above)) | B (B represents a pC50 value between 6.7 (included) and 7.5 (IC50 between 200 nM and 32 nM)) | – | –
C=CC(=O)N1CCN(CCn2c(=O)ccc3cnc(Nc4ccn(C(C)C)n4)nc32)[C@@H](C)C1 [Example 258] | E (E represents a pKi value of 7 or below (Ki of 100 nM or above)) | – | B (B represents pKi value between 9 and 10 (Ki between 1 nM and 0.1 nM)) | – | – | – | A (A represents a value of 3 or above) | C (C represents a pIC50 value between 6 and 6.7 (IC50 between 1 μM and 200 nM))
C=CC(=O)N1CCN(CCn2c(=O)ccc3cnc(Nc4ccn(C(C)C)n4)nc32)[C@@H](CC)C1 [Example 259] | E (E represents a pKi value of 7 or below (Ki of 100 nM or above)) | – | B (B represents pKi value between 9 and 10 (Ki between 1 nM and 0.1 nM)) | – | – | – | A (A represents a value of 3 or above) | C (C represents a pIC50 value between 6 and 6.7 (IC50 between 1 μM and 200 nM))
C=CC(=O)N1CC(C)(CCn2c(=O)ccc3cnc(Nc4ccc(N5CCN(C)CC5)cc4)nc32)C1 [Example 260] | E (E represents a pKi value of 7 or below (Ki of 100 nM or above)) | – | B (B represents pKi value between 9 and 10 (Ki between 1 nM and 0.1 nM)) | – | – | – | A (A represents a value of 3 or above) | A (A represents a pIC50 value≥7.5 (IC50≤32 nM))
C=CC(=O)N1CCN(CCn2c(=O)ccc3cnc(Nc4cnn(C)c4)nc32)[C@@H](CC#N)C1 [Example 261] | E (E represents a pKi value of 7 or below (Ki of 100 nM or above)) | – | B (B represents pKi value between 9 and 10 (Ki between 1 nM and 0.1 nM)) | – | – | – | A (A represents a value of 3 or above) | B (B represents a pC50 value between 6.7 (included) and 7.5 (IC50 between 200 nM and 32 nM))
C=CC(=O)N1CCN(CCn2c(=O)ccc3cnc(Nc4cnn(C)c4)nc32)[C@@H](CN(C)C)C1 [Example 262] | E (E represents a pKi value of 7 or below (Ki of 100 nM or above)) | – | C (C represents a pKi value between 8 and 9 (Ki between 10 nM and 1 nM)) | – | – | – | B (B represents a value of 2.5 to 3) | C (C represents a pIC50 value between 6 and 6.7 (IC50 between 1 μM and 200 nM))
C=CC(=O)N1CCN(CCn2c(=O)ccc3cnc(Nc4ccc(N5C[C@@H](C)N(C)[C@H](C)C5)cc4)nc32)[C@@H](CC)C1 [Example 263] | E (E represents a pKi value of 7 or below (Ki of 100 nM or above)) | – | B (B represents pKi value between 9 and 10 (Ki between 1 nM and 0.1 nM)) | – | – | – | A (A represents a value of 3 or above) | A (A represents a pIC50 value≥7.5 (IC50≤32 nM))
C=CC(=O)N1CC(CCn2c(=O)ccc3cnc(Nc4ccc(N5C[C@@H](C)N(C)[C@H](C)C5)cc4)nc32)C1 [Example 264] | E (E represents a pKi value of 7 or below (Ki of 100 nM or above)) | – | B (B represents pKi value between 9 and 10 (Ki between 1 nM and 0.1 nM)) | – | – | – | A (A represents a value of 3 or above) | A (A represents a pIC50 value≥7.5 (IC50≤32 nM))
